Reference: ChEMBL document CHEMBL1201862, “PubChem BioAssay data set” (2004)
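Tested at 5 concentrations; 48 h exposure; 96-well plates; endpoints linearly interpolated, else capped at highest concentration. At the GI50, growth is halved.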 The source made the active and inactive calls. No stated cut-off is given here; in the data, active = GI50 up to about 1.1 µM and inactive = higher.

Columns and labels:
Assay in all cases: growth of human tumour cells (NCI), 48 h
U-251 = system: U-251
CCRF-CEM = system: CCRF-CEM
NCI-H226 = system: NCI-H226
SNB-19 = system: SNB-19
A549 = system: A549
COLO 205 = system: COLO 205
UO-31 = system: UO-31
UACC-257 = system: UACC-257
M14 = system: M14
ACHN = system: ACHN
KM12 = system: KM12
LOX IMVI = system: LOX IMVI
HOP-62 = system: HOP-62
HCC 2998 = system: HCC 2998
NCI-H23 = system: NCI-H23
HOP-18 = system: HOP-18
786-0 = system: 786-0
TK-10 = system: TK-10
HT-29 = system: HT-29
SR = system: SR
SNB-75 = system: SNB-75
UACC-62 = system: UACC-62
MOLT-4 = system: MOLT-4
DMS-114 = system: DMS-114
SW-620 = system: SW-620
HCT-116 = system: HCT-116
RPMI-8226 = system: RPMI-8226
SK-MEL-28 = system: SK-MEL-28
NCI-H460 = system: NCI-H460
XF498 = system: XF498
A498 = system: A498
HL-60 = system: HL-60
K562 = system: K562
DMS-273 = system: DMS-273
EKVX = system: EKVX
SK-MEL-2 = system: SK-MEL-2
SN12C = system: SN12C
OVCAR-5 = system: OVCAR-5
SK-MEL-5 = system: SK-MEL-5
NCI-H522 = system: NCI-H522
IGROV-1 = system: IGROV-1
SF-539 = system: SF-539
OVCAR-4 = system: OVCAR-4
OVCAR-3 = system: OVCAR-3
OVCAR-8 = system: OVCAR-8
DLD-1 = system: DLD-1
SF-268 = system: SF-268
Malme-3M = system: Malme-3M
KM-20L2 = system: KM-20L2
HCT-15 = system: HCT-15
SK-OV-3 = system: SK-OV-3
RXF 393 = system: RXF 393
SNB-78 = system: SNB-78
HOP-92 = system: HOP-92
CAKI-1 = system: CAKI-1
M19-MEL = system: M19-MEL
SF-295 = system: SF-295

For `NC1=NC2=c3ccccc3=C(c3cnccn3)C2(c2cnccn2)c2ccccc21` (centres undefined), which GI50 (U-251) is on record?
Its GI50 is 98.9 µM (inactive).

What about the GI50 (CCRF-CEM) of the same compound?
The GI50 was 89.7 µM (inactive).

What about the GI50 (NCI-H226) of the same compound?
Its GI50 is 34.7 µM (inactive).

And the GI50 (SNB-19)?
Its GI50 is 48.2 µM (inactive).

What about the GI50 (A549) of the same compound?
The GI50 was 45.7 µM (inactive).

What about the GI50 (COLO 205) of the same compound?
The GI50 was 32.4 µM (inactive).

And the GI50 (UO-31)?
Its GI50 is 44.4 µM (inactive).

What about the GI50 (UACC-257) of the same compound?
The GI50 was 37.1 µM (inactive).

And the GI50 (M14)?
The GI50 was > 100 µM (inactive).

What about the GI50 (ACHN) of the same compound?
Its GI50 is 64.4 µM (inactive).

What about the GI50 (KM12) of the same compound?
The GI50 was 81.8 µM (inactive).

What about the GI50 (LOX IMVI) of the same compound?
Its GI50 is 64.4 µM (inactive).

What about the GI50 (HOP-62) of the same compound?
The GI50 was > 100 µM (inactive).

And the GI50 (HCC 2998)?
Its GI50 is > 100 µM (inactive).

And the GI50 (NCI-H23)?
Its GI50 is 91.4 µM (inactive).

And the GI50 (HOP-18)?
The GI50 was > 100 µM (inactive).

And the GI50 (786-0)?
Its GI50 is > 100 µM (inactive).

And the GI50 (TK-10)?
Its GI50 is 87.9 µM (inactive).

And the GI50 (HT-29)?
Its GI50 is 89.5 µM (inactive).

And the GI50 (SR)?
Its GI50 is 39.5 µM (inactive).

And the GI50 (SNB-75)?
The GI50 was 39.6 µM (inactive).

What about the GI50 (UACC-62) of the same compound?
The GI50 was > 100 µM (inactive).

And the GI50 (MOLT-4)?
The GI50 was 33.6 µM (inactive).

What about the GI50 (DMS-114) of the same compound?
Its GI50 is 50.4 µM (inactive).

And the GI50 (SW-620)?
The GI50 was > 100 µM (inactive).

What about the GI50 (HCT-116) of the same compound?
The GI50 was 76.9 µM (inactive).

And the GI50 (RPMI-8226)?
The GI50 was 58.7 µM (inactive).

And the GI50 (SK-MEL-28)?
The GI50 was > 100 µM (inactive).

What about the GI50 (NCI-H460) of the same compound?
Its GI50 is 58.6 µM (inactive).

What about the GI50 (XF498) of the same compound?
The GI50 was 36.7 µM (inactive).

And the GI50 (A498)?
Its GI50 is 18.2 µM (inactive).

And the GI50 (HL-60)?
The GI50 was 52.8 µM (inactive).

What about the GI50 (K562) of the same compound?
The GI50 was 66.5 µM (inactive).

And the GI50 (DMS-273)?
The GI50 was > 100 µM (inactive).

What about the GI50 (EKVX) of the same compound?
The GI50 was 44.7 µM (inactive).

And the GI50 (SK-MEL-2)?
The GI50 was > 100 µM (inactive).

What about the GI50 (SN12C) of the same compound?
Its GI50 is > 100 µM (inactive).

What about the GI50 (OVCAR-5) of the same compound?
The GI50 was > 100 µM (inactive).

What about the GI50 (SK-MEL-5) of the same compound?
The GI50 was 34 µM (inactive).

And the GI50 (NCI-H522)?
The GI50 was 49.5 µM (inactive).

And the GI50 (IGROV-1)?
The GI50 was > 100 µM (inactive).

What about the GI50 (SF-539) of the same compound?
Its GI50 is 80.5 µM (inactive).

What about the GI50 (OVCAR-4) of the same compound?
The GI50 was 42.4 µM (inactive).

And the GI50 (OVCAR-3)?
The GI50 was 13.8 µM (inactive).

What about the GI50 (OVCAR-8) of the same compound?
The GI50 was 73.3 µM (inactive).

What about the GI50 (DLD-1) of the same compound?
The GI50 was > 100 µM (inactive).

And the GI50 (SF-268)?
The GI50 was 74.1 µM (inactive).

What about the GI50 (Malme-3M) of the same compound?
The GI50 was 49.9 µM (inactive).

And the GI50 (KM-20L2)?
Its GI50 is > 100 µM (inactive).

And the GI50 (HCT-15)?
The GI50 was greater than 100 µM.

And the GI50 (SK-OV-3)?
The GI50 was > 100 µM (inactive).

And the GI50 (RXF 393)?
Its GI50 is > 100 µM (inactive).

What about the GI50 (SNB-78) of the same compound?
The GI50 was 49.1 µM (inactive).

And the GI50 (HOP-92)?
Its GI50 is 37.9 µM (inactive).

And the GI50 (CAKI-1)?
The GI50 was 42.8 µM (inactive).

And the GI50 (M19-MEL)?
Its GI50 is > 100 µM (inactive).

What about the GI50 (SF-295) of the same compound?
The GI50 was 42.2 µM (inactive).

What does the source list for `CC(=O)O[C@]1(C(C)=O)CC[C@H]2[C@@H]3C[C@H](C)C4=CC(=O)C=C[C@]4(C)[C@@]3(F)[C@@H](O)C[C@@]21C` [FLUOROMETHOLONE ACETATE]?
GI50 (U-251): 87.7 µM (inactive); GI50 (CCRF-CEM): 0.213 µM (active); GI50 (NCI-H226): 22.2 µM (inactive); GI50 (SNB-19): > 100 µM (inactive); GI50 (A549): 43.2 µM (inactive); GI50 (COLO 205): > 100 µM (inactive); GI50 (UO-31): 17.1 µM (inactive); GI50 (UACC-257): 31.1 µM (inactive); GI50 (M14): 48.3 µM (inactive); GI50 (ACHN): 56.5 µM (inactive); GI50 (KM12): > 100 µM (inactive); GI50 (LOX IMVI): 63.5 µM (inactive); GI50 (HOP-62): > 100 µM (inactive); GI50 (HCC 2998): > 100 µM (inactive); GI50 (NCI-H23): 63.8 µM (inactive); GI50 (786-0): > 100 µM (inactive); GI50 (TK-10): 67 µM (inactive); GI50 (HT-29): 56.1 µM (inactive); GI50 (SR): 24.7 µM (inactive); GI50 (SNB-75): > 100 µM (inactive); GI50 (UACC-62): 23.7 µM (inactive); GI50 (MOLT-4): 25.2 µM (inactive); GI50 (DMS-114): 53.6 µM (inactive); GI50 (SW-620): 53.2 µM (inactive); GI50 (HCT-116): > 100 µM (inactive); GI50 (RPMI-8226): 11.9 µM (inactive); GI50 (SK-MEL-28): 86.3 µM (inactive); GI50 (NCI-H460): 76.9 µM (inactive); GI50 (XF498): 38.3 µM (inactive); GI50 (HL-60): 37.6 µM (inactive); GI50 (K562): 48.1 µM (inactive); GI50 (DMS-273): 41.7 µM (inactive); GI50 (EKVX): > 100 µM (inactive); GI50 (OVCAR-5): 0.149 µM (active); GI50 (SK-MEL-5): 28.9 µM (inactive); GI50 (NCI-H522): 62.1 µM (inactive); GI50 (IGROV-1): 69.5 µM (inactive); GI50 (SF-539): > 100 µM (inactive); GI50 (OVCAR-4): 27.4 µM (inactive); GI50 (OVCAR-3): > 100 µM (inactive); GI50 (DLD-1): 94.6 µM (inactive); GI50 (SF-268): 36.2 µM (inactive); GI50 (Malme-3M): 24.9 µM (inactive); GI50 (KM-20L2): > 100 µM (inactive); GI50 (HCT-15): 19.6 µM; GI50 (SK-OV-3): < 0.01 µM (active); GI50 (RXF 393): 23.7 µM (inactive); GI50 (SNB-78): 72.6 µM (inactive); GI50 (HOP-92): 85.7 µM (inactive); GI50 (CAKI-1): 96.4 µM (inactive); GI50 (M19-MEL): > 100 µM (inactive); GI50 (SF-295): 66.7 µM (inactive)
